Reference: patent US10568892B2, “Cycloartane tetracyclic triterpenoid compound, preparation method therefor and use thereof” (Hefei Cosource Pharmaceuticals Inc., priority 2016, dated 2020)

Experiments:
SD rats = test: Rat myocardial ischemia model with coronary artery ligation and reperfusion (arrhythmia incidence); format: in vivo; conditions: for Death (%) / Death n / Ventricular fibrillation (%) / Ventricular fibrillation n / Ventricular premature beat (%) / Ventricular premature beat n / Ventricular tachycardia (%) / Ventricular tachycardia n: injection (sublingually) 5 min before ischemia
Source text: Method: SD rats were anesthetized with pentobarbital, and a cervical midline incision was made to separate and cut off the trachea such that it was connected to a respirator. The skin was cut along the midline of the left clavicle of the rat, and the chest was opened between the left third and fourth ribs to gently squeeze out the heart. The pericardium was opened, the needle was inserted at the left edge of the pulmonary artery cone and 2 mm at the lower edge of the left atrial appendage. The 6-0 non-invasive suture was threaded through the superficial myocardium, with the left anterior descending coronary artery (LAD) located thereon. After stabilization for 5 min, a double-layer plastic cannula was put on, and the cable tie was tighten to complete the myocardial ischemia induced by left coronary artery occlusion. The criterion for myocardial ischemia is the occurrence of myocardial infarction (St-segment ran up or T-wave was shown as high sharp wave) in the electrocardiogram and the presence of local cyanosis in the heart. After 5 min of myocardial ischemia, the inner cannula was withdrawn, that is, the wire knot was released for reperfusion, and the electrocardiogram of reperfusion in the rat was recorded.
The administration was performed at 5 min before the ischemia by coronary artery ligation, and the administration mode was injection administration (sublingually).

SD rat = test: Rat model of heart failure induced by adriamycin; format: in vivo
Procedure: 2 mg/kg of adriamycin was injected through tail vein to a SD rat for modeling, once a week for 6 weeks. After the modeling was completed, intragastrical administration of Compound 369 at low (3 mg/kg) and high (9 mg/kg) doses was carried out daily for 4 weeks. In the negative control group, the same volume of normal saline was injected through the tail vein once a week for 6 weeks, thereafter the same volume of vehicle was intragastrically administrated daily for 4 weeks. After the end of the administration, the blood pressure was measured by the carotid artery intubation. The left ventricular end diastolic pressure (LVEDP), left ventricular systolic pressure (LVSP), maximal rate of left ventricular systolic pressure (+dp/dt max), and maximal rate of left ventricular diastolic pressure (−dp/dt max) were recorded, and the average values thereof were calculated.
After the hemodynamic indexes were measured, the chest was opened and the heart and lung were quickly taken out. They were immediately placed in the normal saline at 4° C. to wash down the remaining blood. The fats, blood vessels and atrial tissues on the heart were discarded. The heart was sucked dry by the filter paper, and accurately weighed using the electronic balance to record the heart weight. The ratio of heart weight to body weight (HW/BW), i.e., the heart mass index (HMI), was calculated.

[1] = Single-dose toxicity (MTD) in SD rats; format: in vivo; conditions: in vivo, SD rat, read-out: Maximum tolerance dose (MTD)
Source text: (§1) The results of the experimental study on the toxicity of Compound 369 administrated through a single intravenous or intragastrical administration in SD rats and KM mice are shown in Table 9.

[2] = Single-dose toxicity (MTD) in KM mice; format: in vivo; conditions: in vivo, po; KM mouse; single intragastrical administration; read-out: Maximum tolerance dose (MTD)
Source text: as §1

[3] = Pharmacokinetics in Beagle canines; format: in vivo; conditions: dog, in vivo
Procedure: Method: Six healthy male Beagle canines were selected and divided into two groups. 2 mg/kg of Compound 369 or cyclovirobuxine D was administrated intragastrically, respectively. Blood samples (about 2 mL) were collected from the limb venous of canines 0 h before administration as well as 0.25 h, 0.5 h, 1 h, 2 h, 4 h, 6 h, 8 h, and 12 h after administration. The concentrations of Compound 369 and cyclovirobuxine D in plasma samples were determined by LC-MS/MS, and the pharmacokinetic parameters were calculated by DAS.3.0 software.

[4] = Pharmacokinetics in SD rats; format: in vivo, rat; conditions: rat, in vivo
Procedure: Method: twelve SD male rats were divided into four groups: 2 mg/kg of Compound 369 or cyclovirobuxine D was single dose through the intravenous injection or intragastrical administration, respectively. In the intravenous and intragastrical groups, blood samples (about 0.3 Ml) were collected from the posterior orbital venous plexus pro-dose and 0.25 h, 0.5 h, 1 h, 2 h, 4 h, 6 h, 8 h, and 12 h post-dose. The concentrations of Compound 369 and cyclovirobuxine D in plasma samples were determined by LC-MS/MS, and the pharmacokinetic parameters were calculated by DAS.3.0 software.

[5] = High dose 9 mg/kg intragastrical daily for 4 weeks
[6] = Low dose 3 mg/kg intragastrical daily for 4 weeks

## CN[C@H]1CC[C@]23C[C@]24CC[C@]2(C)C(C(C)=O)=CC[C@@]2(C)[C@@H]4CC[C@H]3C1(C)C [Compound 369, (3β,5α)-4,4,14-trimethyl-3-(methylamino)-9,19-cyclopregnan-16-en-20-one]
SD rats; 1 mg/kg
  Death (%): 38%
  Death n: 3
  Ventricular fibrillation (%): 63%
  Ventricular fibrillation n: 5
  Ventricular premature beat (%): 100%
  Ventricular premature beat n: 8
  Ventricular tachycardia (%): 100%
  Ventricular tachycardia n: 8
SD rats; 10 mg/kg
  Death (%): 0 (0) %
  Death n: 0 (0)
  Ventricular fibrillation (%): 14%
  Ventricular fibrillation n: 1
  Ventricular premature beat (%): 86%
  Ventricular premature beat n: 6
  Ventricular tachycardia (%): 71%
  Ventricular tachycardia n: 5
SD rats; 30 mg/kg
  Death (%): 0 (0) %
  Death n: 0 (0)
  Ventricular fibrillation (%): 0 (0) %
  Ventricular fibrillation n: 0 (0)
  Ventricular premature beat (%): 83%
  Ventricular premature beat n: 5
  Ventricular tachycardia (%): 17%
  Ventricular tachycardia n: 1
SD rats; 1 to 30 mg/kg, dose-response relationship
  Numbers of animals (incidences) with ventricular premature beat, ventricular tachycardia, ventricular fibrillation, and death vs vehicle (in words): lower
SD rat; 3 and 9 mg/kg intragastrical daily for 4 weeks
  Therapeutic effect on heart failure induced by adriamycin (in words): a certain therapeutic effect
SD rat; [5]
  ADBP: 47.0 ± 17.1 mmHg
  ASBP: 84.9 ± 13.3 mmHg
  BW: 380.3 ± 24.8 g
  HW: 1185.0 ± 135.3 mg
  HW/BW: 3.11 mg/g
  LVEDP: −14.2 ± 8.8 mmHg
  LVSP: 97.3 ± 8.9 mmHg
  dp/dtmax: 2402.3 ± 427.6 mmHg/s
  −dp/dt max: −2098.7 ± 345.9 mmHg/s
SD rat; [6]
  ADBP: 40.4 ± 15.3 mmHg
  ASBP: 80.8 ± 17.3 mmHg
  BW: 308.5 ± 34.65 g
  HW: 1007.4 ± 145.3 mg
  HW/BW: 3.27 mg/g
  LVEDP: −12.7 ± 10.0 mmHg
  LVSP: 96.5 ± 9.1 mmHg
  dp/dtmax: 2317.7 ± 715.4 mmHg/s
  −dp/dt max: −2013.5 ± 405.4 mmHg/s
[1]; po, single intragastrical administration
  MTD: 1000 mg/kg
[1]; single intravenous injection
  MTD: 45 mg/kg
[2]
  MTD: 1000 mg/kg
[3]
  Exposures in plasma (AUC and Cmax values) vs cyclovirobuxine D (in words): higher than that of cyclovirobuxine D
  Half-life (T1/2) vs cyclovirobuxine D (in words): shorter than that of cyclovirobuxine D
[3]; male, Beagle, po, 2 mg/kg
  AUC(0-t): 505 ng·h/mL
  Cmax: 43.4 ng/mL
  Tmax: 2.67 h
  half-life: 11.1 h
[4]; male, SD, 2 mg/kg
  F: 35%
[4]; male, SD, iv, 2 mg/kg
  AUC(0-t): 249 ng·h/mL
  Cmax: 103 ng/mL
  Tmax: 0.25 h
  half-life: 4.1 h
[4]; male, SD, po, 2 mg/kg
  AUC(0-t): 84.6 ng·h/mL
  Cmax: 11.4 ng/mL
  Tmax: 5 h
  half-life: 3.5 h
[4]
  Exposures in plasma (AUC and Cmax values) vs cyclovirobuxine D (in words): slightly lower than that of cyclovirobuxine D
  Half-life (T1/2) vs cyclovirobuxine D (in words): significantly shorter than that of cyclovirobuxine D
